Here are results for 13 compounds from patent US20120177681A1, “Formulation of immunopotentiators” (priority 2010, published 2012).

pEC50: −log10 of the molar value. Read-outs that look alike come from different tables or passages of the source. A value given as a limit tells only on which side of the number the result lay.

A short description of one data set: Water solubility. The data set is classed as physicochemical. Conditions: read-out: water-soluble at.
Data set [1] in a line: Muscle levels 24 hours after intramuscular injection. The data set is classed as in vivo, Balb/C mice. Conditions: for detection in muscle 24 hours after intramuscular injection / concentration at 24 h: 100 μg; for concentration at 24 h: Balb/C, mouse, muscle, intramuscular, 100 μg i.m.
Data set [2] is described as follows: Model of in vivo desorption from Al—H. Particulars: 37° C. It is filed as in vitro ADME.
Data set [3] is classed as physicochemical. Conditions: SDS-PAGE of supernatants.
The target of another data set is T1, human TLR7 (Homo sapiens, UniProt Q9NYK1).
T1 construct: expressed in transfected cells; host or cells: HEK293
T1 sequence (Q9NYK1 27-1049): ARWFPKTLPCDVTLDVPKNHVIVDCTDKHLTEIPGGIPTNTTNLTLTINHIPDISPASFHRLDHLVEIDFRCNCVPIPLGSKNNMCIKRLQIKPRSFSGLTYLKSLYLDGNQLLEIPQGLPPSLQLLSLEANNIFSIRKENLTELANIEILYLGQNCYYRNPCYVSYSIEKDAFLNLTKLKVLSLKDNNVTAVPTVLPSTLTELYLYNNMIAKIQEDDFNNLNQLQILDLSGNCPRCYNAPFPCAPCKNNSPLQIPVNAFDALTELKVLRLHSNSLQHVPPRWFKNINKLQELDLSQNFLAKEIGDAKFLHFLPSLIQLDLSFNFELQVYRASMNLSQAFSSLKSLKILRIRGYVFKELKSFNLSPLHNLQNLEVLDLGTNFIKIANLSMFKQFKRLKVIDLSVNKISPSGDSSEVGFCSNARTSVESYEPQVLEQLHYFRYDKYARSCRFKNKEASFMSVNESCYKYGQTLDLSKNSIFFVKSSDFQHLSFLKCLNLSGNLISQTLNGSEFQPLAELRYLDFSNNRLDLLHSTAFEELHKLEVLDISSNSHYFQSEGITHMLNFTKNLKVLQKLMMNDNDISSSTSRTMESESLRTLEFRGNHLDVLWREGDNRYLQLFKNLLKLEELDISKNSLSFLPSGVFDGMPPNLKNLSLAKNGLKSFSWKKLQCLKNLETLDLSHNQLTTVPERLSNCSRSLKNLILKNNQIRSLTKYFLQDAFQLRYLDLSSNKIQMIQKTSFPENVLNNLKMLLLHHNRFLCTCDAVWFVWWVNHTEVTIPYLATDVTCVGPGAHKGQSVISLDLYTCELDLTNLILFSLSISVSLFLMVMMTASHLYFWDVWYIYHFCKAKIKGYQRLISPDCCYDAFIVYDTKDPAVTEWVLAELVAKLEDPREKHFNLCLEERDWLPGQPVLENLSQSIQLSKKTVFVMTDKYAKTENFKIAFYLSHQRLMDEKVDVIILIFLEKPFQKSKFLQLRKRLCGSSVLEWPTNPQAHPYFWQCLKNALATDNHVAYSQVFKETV
The data set can be described thus: HEK293 human TLR7 NF-κB luciferase reporter assay. It is filed as cell-based. Conditions: HEK293 cells. How it is done: The activity of this compound is assessed in an assay using HEK293 cells which are stably transfected with human TLR7 and an NF-κB-driven luciferase reporter vector (pNifty-Luciferase). As a control assay, normal HEK293 transfected with pNifty-Luc are used. Cells are cultured in DMEM supplemented with 2 mM L-glutamine, 10% heart inactivated FBS, 1% penicillin and streptomycin, 2 μg/ml puromycin and 5 μg/ml of blasticidin. Bright-Glo™ Luciferase assay buffer and substrate are supplied by Promega. Cells are plated at 25,000 cells/well in 384-well plates in a final volume of 50 μl of media. Cells are allowed to adhere to the plates after overnight (18 hours) culture at 37° C. and 5% CO2. Serially-diluted experimental and positive control compounds are then dispensed to each well and incubated for 7 hours at 37° C. and 5% CO2. Cells stimulated with DMSO alone serve as negative controls. After the incubation, 30 μl of the pre-mix assay buffer and substrate buffer are added to each well according to manufacturer's instructions. The luminescence signal is read on a CLIPR machine with an integration time of 20 seconds per plate.
In general terms: Reporter assays use an easily measured gene product as a stand-in for the process of interest.

The nature of data set [4]: Systemic serum exposure after intramuscular injection. Particulars: Balb/C, mouse; for AUC: im, 100 μg i.m.; for Cmax: intramuscular, 100 μg. The data set is classed as in vivo, Balb/C mice.
For the next data set, the system named is serum cytokines. The data set can be described thus: Serum cytokines after administration. Conditions: in vivo.
Data set [5] concerns serogroup B meningococcus. It is filed as in vivo, CD-1 mice. Conditions: 5CVMB at days 0 & 14 with (b) the agonist compound.
The mark [6] stands for this setting: SIF (simulated interstitial fluid).
The mark [7] stands for this setting: 100 ug, compound alone, 24 hours.
Where [8] appears, read: +Al—H (adsorbed), read-out: Levels of compound in muscle 24 hours after injection.
Setting [9] is: 100 ug, TLR2 agonists, compound alone.
Where [10] appears, read: TLR2 agonists, +Al—H (adsorbed).

As for `Cc1cc(OCCCC(F)(F)P(=O)(O)O)ccc1CCc1cnc2c(N)nc3cc(CCC(=O)O)ccc3c2c1` [Compound 3], the solubility in “Water solubility” was more than 1000 µg/mL. The “detection in muscle 24 hours after intramuscular injection” value (from here on “detection in muscle 24 hours”) was “readily detected” in data set [1] (injected with Al—H) and “undetectable” in data set [1] (without Al—H (free form)). In addition, the “proportion desorbed after 5 hours” value in data set [2] (His buff) is listed as 5%; in data set [2] (Plasma/His buff) it was 49%; in data set [2] (setting [6]), 100%. In data set [3], the “adsorption of MenB antigens to Al—H after pre-adsorption of compound” value is reported as “completely adsorbed”.

For the compound `Cc1cc(OCCOCCOCCC(F)(F)P(=O)(O)O)ccc1CCc1cnc2c(N)nc3cc(CCC(=O)O)ccc3c2c1` [Compound 4], the solubility in “Water solubility” is more than 1000 µg/mL. Also, the entries for the “detection in muscle 24 hours” value in data set [1] (injected with Al—H) and in data set [1] (without Al—H (free form)) were “readily detected” and “undetectable”, respectively. The entries for the “proportion desorbed after 5 hours” value in data set [2] (His buff), in data set [2] (Plasma/His buff) and in data set [2] (setting [6]) were 4%, 81% and 100%, respectively. In addition, in data set [3], the “adsorption of MenB antigens to Al—H after pre-adsorption of compound” value was “completely adsorbed”.

One may read the pEC50 as the EC50 on a negative log10 scale, so that one unit is a factor of ten. A word on the AUC: it is concentration integrated over time. What is called Cmax is the peak of the concentration-time curve. Regarding `COCCOc1nc(N)c2nc(O)n(Cc3ccc(CP(=O)(O)O)cc3)c2n1` [Compound 6, (4-((6-amino-2-(2-methoxyethoxy)-8-oxo-7H-purin-9(8H)-yl)methyl)benzyl)phosphonic acid], the solubility in the data set “Water solubility” was more than 1000 µg/mL. Besides, at human TLR7, the pEC50 is 6.39. The AUC in data set [4] (setting [7]) worked out at 7.18 µM·h; in data set [4] (+Al—H (adsorbed), 24 hours), 13.4 µM·h. In addition, the Cmax in data set [4] (+Al—H (adsorbed)) was 5520 nM; in data set [4] (compound alone) it was 6120 nM. Moreover, the “detection in muscle 24 hours” value in data set [1] (without Al—H (free form)) was “undetectable”. Moreover, the concentration at 24 h in data set [1] (setting [8]) came to 2770 nM; in data set [1] (compound alone), 0 nM. Also, in data set [1] (after 24 hours), the “detection in inguinal lymph nodes or in liver” value is on record as “could not be detected”.

As to `CCOCc1nc2c(N)nc3ccccc3c2n1CCOCCP(=O)(O)O` [Compound 7], at human TLR7, the negative-log EC50 (pEC50) is 4.18.

In turn, `CCCCCNc1nc(N)nc(C)c1Cc1ccc(CP(=O)(O)O)cc1OC` [Compound 8] showed a pEC50 on human TLR7 of 5.14. Compared with the last compound, the pEC50 is 0.96 log units higher.

As to `CCCCCCCCCCCC(=O)OC[C@H](CSC[C@H](N)C(=O)NC1(COCCCP(=O)(O)O)CC1)OC(=O)CCCCCCCCCCC` [Compound 22, (3-((1-((R)-2-amino-3-(((R)-2,3-bis(dodecanoyloxy)propyl)thio)propanamido)cyclopropyl)methoxy)propyl)phosphonic acid], the concentration at 24 h in data set [1] (setting [8]) is 25300 nM; in data set [1] (compound alone), 0 nM.

Take `COCCOc1cc2c(nc(O)n2Cc2ccc(CP(=O)(O)O)cc2)c(N)n1` [Compound 67, (4-((4-amino-6-(2-methoxyethoxy)-2-oxo-2,3-dihydro-1H-imidazo[4,5-c]pyridin-1-yl)methyl)benzyl)phosphonic acid]: the solubility in the data set “Water solubility” was more than 1000 µg/mL. On human TLR7, this compound had a pEC50 of 5.19. In addition, the AUC in data set [4] (setting [7]) amounted to 3.57 µM·h; in data set [4] (+Al—H (adsorbed), 24 hours), 8.11 µM·h. For the same compound, the Cmax in data set [4] (+Al—H (adsorbed)) was determined as 4510 nM; in data set [4] (compound alone), 4060 nM. Moreover, the “effect of adsorption to Al—H on systemic cytokines” value (“effect of adsorption to Al—H” below) with serum cytokines was “generally reduced or unaffected”. Also, the figures for the “detection in muscle 24 hours” value in data set [1] (injected with Al—H) and in data set [1] (without Al—H (free form)) were “readily detected” and “undetectable”, respectively. For the same compound, the values for the concentration at 24 h in data set [1] (setting [8]) and in data set [1] (compound alone) were 2880 nM and 0 nM, respectively. In data set [5], the “SBA titers at day 28” value is 64.

Turning to `CCOCc1nc2c(N)nc3ccccc3c2n1CCOCCOCCOCCP(=O)(O)O` [Compound 68, (2-(2-(2-(2-(4-amino-2-(ethoxymethyl)-1H-imidazo[4,5-c]quinolin-1-yl)ethoxy)ethoxy)ethoxy)ethyl)phosphonic acid], the solubility in “Water solubility” was more than 1000 µg/mL. In addition, on human TLR7, the negative logarithm of the EC50 (pEC50) was 4.55. The AUC came out at 1.39 µM·h in data set [4] (setting [7]) and 2.76 µM·h in data set [4] (+Al—H (adsorbed), 24 hours). Moreover, the Cmax in data set [4] (+Al—H (adsorbed)) is 1720 nM; in data set [4] (compound alone), 2120 nM. Besides, the “effect of adsorption to Al—H” value with serum cytokines is on record as “generally reduced or unaffected”. Moreover, the results for the “detection in muscle 24 hours” value in data set [1] (injected with Al—H) and in data set [1] (without Al—H (free form)) were “readily detected” and “undetectable”, respectively. The concentration at 24 h amounted to 502 nM in data set [1] (setting [8]) and 0 nM in data set [1] (compound alone).

On human TLR7, `CCCCCNc1nc(N)nc(C)c1Cc1ccc(CP(=O)(O)O)cc1` [Compound 69] had a pEC50 of 4.32.

In the case of `CCCCCNc1nc(N)nc(C)c1Cc1ccc(OCCOCCC(F)(F)P(=O)(O)O)cc1OC` [Compound 71, (3-(2-(4-((2-amino-4-methyl-6-(pentylamino)pyrimidin-5-yl)methyl)-3-methoxyphenoxy)ethoxy)-1,1-difluoropropyl)phosphonic acid], the solubility in “Water solubility” was more than 1000 µg/mL. Also, on human TLR7, the negative logarithm of the EC50 (pEC50) was 5.57. Also, the exposure (AUC) in data set [4] (setting [7]) turned out to be 2.09 µM·h; in data set [4] (+Al—H (adsorbed), 24 hours), 4.22 µM·h. In addition, the Cmax in data set [4] (+Al—H (adsorbed)) is 1810 nM; in data set [4] (compound alone), 2600 nM. Moreover, the “effect of adsorption to Al—H” value in the data set on serum cytokines is “generally reduced or unaffected”. Moreover, the “detection in muscle 24 hours” value is reported as “readily detected” in data set [1] (injected with Al—H) and “undetectable” in data set [1] (without Al—H (free form)). Also, the values for the concentration at 24 h in data set [1] (setting [8]) and in data set [1] (compound alone) were 924 nM and 0 nM, respectively. In data set [5], the “SBA titers at day 28” value came out at 65.

Regarding `CCCCCCCCCCCC(=O)OC[C@H](CSC[C@H](N)C(=O)NCCOCCOCCOCCP(=O)(O)O)OC(=O)CCCCCCCCCCC` [Compound 72, ((14R,18R)-14-amino-18-(dodecanoyloxy)-13,21-dioxo-3,6,9,20-tetraoxa-16-thia-12-azadotriacontyl)phosphonic acid], the concentration at 24 h in data set [1] (setting [8]) was found to be 14500 nM; in data set [1] (compound alone), 0 nM.

In the case of `CCCCCCCCCCCCOC[C@H](CSC[C@H](N)C(=O)NCCOCCOCCOCCP(=O)(O)O)OCCCCCCCCCCCC` [Compound 74, ((14R,18R)-14-amino-18-(dodecyloxy)-13-oxo-3,6,9,20-tetraoxa-16-thia-12-azadotriacontyl)phosphonic acid], the values for the AUC in data set [4] (setting [9]) and in data set [4] (setting [10]) were 37.4 µM·h and 3.39 µM·h, respectively. Besides, the Cmax in data set [4] (+Al—H (adsorbed)) was found to be 317 nM; in data set [4] (compound alone) it was 1940 nM. Moreover, the concentration at 24 h was 49000 nM in data set [1] (setting [8]) and 27800 nM in data set [1] (compound alone).

`CCCCCCCCCCCCOC[C@H](CSC[C@H](N)C(=O)NCCOCCOCCOCCP(=O)(O)O)NC(=O)CCCCCCCCCCC` [Compound 80, ((14R,18R)-14-amino-18-dodecanamido-13-oxo-3,6,9,20-tetraoxa-16-thia-12-azadotriacontyl)phosphonic acid]: the values for the AUC in data set [4] (setting [9]) and in data set [4] (setting [10]) were 20.7 µM·h and 7.26 µM·h, respectively. In addition, the values for the Cmax in data set [4] (+Al—H (adsorbed)) and in data set [4] (compound alone) were 180 nM and 2820 nM, respectively. For the same compound, the concentration at 24 h stood at 47200 nM in data set [1] (setting [8]) and 5070 nM in data set [1] (compound alone).
